US12516056B2, “Compounds for inhibition of janus kinase 1” (MANKIND PHARMA LTD., priority 2019, dated 2026)

Experiments:
[1] = target: T1, Recombinant JAK2 (Homo sapiens, UniProt O60674); experiment: JAK biochemical assay (LANCE Ultra TR-FRET), JAK2; conditions: recombinant JAK2, TR-FRET; read-out: Biochemical Assay (μM) JAK2
T1 construct: purchased Carna Biosciences
Summary of the method: (§1)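 Kinase reactions ran in buffer of 50 mM HEPES pH 7.5 with 1 mM EGTA, 10 mM MgCl2, 2 mM DTT and 0.01% Tween-20, using recombinant enzyme. Phosphorylated ULight substrate was detected by TR-FRET, and compound effect expressed as % inhibition against vehicle.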

[2] = target: T2, Recombinant JAK1 (Homo sapiens, UniProt P23458); experiment: JAK biochemical assay (LANCE Ultra TR-FRET), JAK1; conditions: recombinant JAK1, TR-FRET; read-out: Biochemical Assay (μM) JAK1
T2 construct: purchased Carna Biosciences
T2 sequence (P23458 whole entry): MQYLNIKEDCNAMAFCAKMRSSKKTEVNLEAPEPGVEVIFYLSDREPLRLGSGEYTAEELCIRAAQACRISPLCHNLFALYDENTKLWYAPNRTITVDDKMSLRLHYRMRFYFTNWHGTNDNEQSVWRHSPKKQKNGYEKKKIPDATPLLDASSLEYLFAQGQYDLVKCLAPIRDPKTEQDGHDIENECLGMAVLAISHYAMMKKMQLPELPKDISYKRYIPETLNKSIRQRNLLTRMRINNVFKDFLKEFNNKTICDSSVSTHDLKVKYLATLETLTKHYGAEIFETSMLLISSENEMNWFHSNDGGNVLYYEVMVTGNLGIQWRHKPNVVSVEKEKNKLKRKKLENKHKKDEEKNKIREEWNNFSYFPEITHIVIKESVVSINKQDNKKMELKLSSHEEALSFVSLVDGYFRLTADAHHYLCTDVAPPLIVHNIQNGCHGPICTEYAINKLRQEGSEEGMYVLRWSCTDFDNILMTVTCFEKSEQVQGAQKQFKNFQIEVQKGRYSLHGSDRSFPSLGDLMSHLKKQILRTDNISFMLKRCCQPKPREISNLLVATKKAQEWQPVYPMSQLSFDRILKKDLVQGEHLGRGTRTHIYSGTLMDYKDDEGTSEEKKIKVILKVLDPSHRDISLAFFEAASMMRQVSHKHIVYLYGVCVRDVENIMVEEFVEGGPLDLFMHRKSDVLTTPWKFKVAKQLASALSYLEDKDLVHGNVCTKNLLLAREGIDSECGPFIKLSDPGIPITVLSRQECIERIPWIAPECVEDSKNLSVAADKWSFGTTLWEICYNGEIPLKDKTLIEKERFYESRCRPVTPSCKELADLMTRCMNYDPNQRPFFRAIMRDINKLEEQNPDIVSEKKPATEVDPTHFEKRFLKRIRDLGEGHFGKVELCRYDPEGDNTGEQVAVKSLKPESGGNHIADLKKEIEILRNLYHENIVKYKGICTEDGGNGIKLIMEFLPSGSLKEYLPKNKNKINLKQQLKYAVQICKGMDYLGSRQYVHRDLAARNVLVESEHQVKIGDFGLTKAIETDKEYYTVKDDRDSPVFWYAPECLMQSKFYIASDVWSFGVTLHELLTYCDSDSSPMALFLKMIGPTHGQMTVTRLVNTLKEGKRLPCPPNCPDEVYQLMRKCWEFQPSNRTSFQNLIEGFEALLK
Summary of the method: as §1

[3] = target: T3, Recombinant JAK3 (Homo sapiens, UniProt P52333); experiment: JAK biochemical assay (LANCE Ultra TR-FRET), JAK3; conditions: recombinant JAK3, TR-FRET; read-out: Biochemical Assay (μM) JAK3
T3 construct: purchased Carna Biosciences
T3 sequence (P52333 1-1124): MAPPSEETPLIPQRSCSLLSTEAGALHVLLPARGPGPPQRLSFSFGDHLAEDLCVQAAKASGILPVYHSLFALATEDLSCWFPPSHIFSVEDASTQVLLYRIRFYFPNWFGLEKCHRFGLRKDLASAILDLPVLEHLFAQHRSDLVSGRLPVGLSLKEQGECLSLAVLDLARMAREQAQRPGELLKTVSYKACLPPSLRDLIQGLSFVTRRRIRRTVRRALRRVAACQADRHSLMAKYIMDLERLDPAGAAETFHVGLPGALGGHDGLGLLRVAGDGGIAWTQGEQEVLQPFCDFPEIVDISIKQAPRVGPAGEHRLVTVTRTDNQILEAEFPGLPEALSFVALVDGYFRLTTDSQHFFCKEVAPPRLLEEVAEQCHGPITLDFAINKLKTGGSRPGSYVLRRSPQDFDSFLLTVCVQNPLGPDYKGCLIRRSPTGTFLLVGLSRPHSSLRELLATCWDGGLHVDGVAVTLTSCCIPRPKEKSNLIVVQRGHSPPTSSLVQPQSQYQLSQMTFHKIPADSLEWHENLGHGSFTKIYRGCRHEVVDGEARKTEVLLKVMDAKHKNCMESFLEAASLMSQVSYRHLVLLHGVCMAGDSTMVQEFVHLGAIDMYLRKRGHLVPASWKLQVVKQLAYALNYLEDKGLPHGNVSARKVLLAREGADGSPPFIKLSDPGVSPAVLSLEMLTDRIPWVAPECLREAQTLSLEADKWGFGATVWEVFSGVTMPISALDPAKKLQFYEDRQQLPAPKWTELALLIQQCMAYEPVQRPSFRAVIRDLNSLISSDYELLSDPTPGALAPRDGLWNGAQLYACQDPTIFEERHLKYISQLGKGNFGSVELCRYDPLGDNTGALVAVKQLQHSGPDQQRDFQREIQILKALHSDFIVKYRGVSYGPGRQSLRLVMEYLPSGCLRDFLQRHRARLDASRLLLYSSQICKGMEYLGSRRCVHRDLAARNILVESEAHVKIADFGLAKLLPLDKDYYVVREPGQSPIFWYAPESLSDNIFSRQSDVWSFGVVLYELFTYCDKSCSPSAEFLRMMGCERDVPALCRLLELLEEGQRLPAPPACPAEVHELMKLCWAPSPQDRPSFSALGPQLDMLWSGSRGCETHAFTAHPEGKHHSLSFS
Summary of the method: as §1

[4] = target: T4, Recombinant TYK2 (Homo sapiens, UniProt P29597); experiment: JAK biochemical assay (LANCE Ultra TR-FRET), TYK2; conditions: recombinant TYK2, TR-FRET; read-out: Biochemical Assay (μM) TYK2
T4 construct: purchased Carna Biosciences
T4 sequence (P29597 whole entry): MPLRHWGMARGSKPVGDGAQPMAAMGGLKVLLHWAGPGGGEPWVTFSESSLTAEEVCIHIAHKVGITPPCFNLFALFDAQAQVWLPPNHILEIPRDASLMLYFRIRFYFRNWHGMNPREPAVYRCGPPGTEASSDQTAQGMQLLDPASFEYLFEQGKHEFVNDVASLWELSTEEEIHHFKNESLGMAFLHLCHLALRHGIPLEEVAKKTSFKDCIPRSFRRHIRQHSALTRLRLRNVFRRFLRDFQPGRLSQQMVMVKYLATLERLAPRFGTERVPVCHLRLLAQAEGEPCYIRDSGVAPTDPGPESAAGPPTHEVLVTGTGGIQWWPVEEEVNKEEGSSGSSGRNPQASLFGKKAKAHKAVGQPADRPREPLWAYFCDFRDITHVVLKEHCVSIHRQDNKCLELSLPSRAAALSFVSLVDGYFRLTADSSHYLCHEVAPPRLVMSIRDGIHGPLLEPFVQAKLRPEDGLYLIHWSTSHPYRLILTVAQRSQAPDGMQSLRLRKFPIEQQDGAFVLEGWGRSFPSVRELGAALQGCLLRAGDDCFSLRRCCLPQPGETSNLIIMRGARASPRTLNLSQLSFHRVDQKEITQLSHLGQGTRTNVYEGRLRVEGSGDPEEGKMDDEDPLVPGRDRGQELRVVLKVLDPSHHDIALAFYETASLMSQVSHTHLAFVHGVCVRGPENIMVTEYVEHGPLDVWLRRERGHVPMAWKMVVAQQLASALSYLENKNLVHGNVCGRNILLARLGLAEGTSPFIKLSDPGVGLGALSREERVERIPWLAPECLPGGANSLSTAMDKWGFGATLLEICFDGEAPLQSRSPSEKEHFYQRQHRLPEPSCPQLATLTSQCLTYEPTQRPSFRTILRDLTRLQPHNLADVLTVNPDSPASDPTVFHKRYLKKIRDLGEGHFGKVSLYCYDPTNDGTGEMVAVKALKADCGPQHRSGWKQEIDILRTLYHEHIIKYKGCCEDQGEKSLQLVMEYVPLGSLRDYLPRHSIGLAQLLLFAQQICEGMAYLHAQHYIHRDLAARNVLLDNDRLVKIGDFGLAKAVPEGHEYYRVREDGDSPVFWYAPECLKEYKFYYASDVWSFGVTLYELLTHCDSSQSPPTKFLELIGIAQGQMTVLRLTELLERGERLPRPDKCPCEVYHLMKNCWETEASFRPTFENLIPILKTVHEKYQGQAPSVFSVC
Summary of the method: as §1

T1 sequence (O60674 whole entry): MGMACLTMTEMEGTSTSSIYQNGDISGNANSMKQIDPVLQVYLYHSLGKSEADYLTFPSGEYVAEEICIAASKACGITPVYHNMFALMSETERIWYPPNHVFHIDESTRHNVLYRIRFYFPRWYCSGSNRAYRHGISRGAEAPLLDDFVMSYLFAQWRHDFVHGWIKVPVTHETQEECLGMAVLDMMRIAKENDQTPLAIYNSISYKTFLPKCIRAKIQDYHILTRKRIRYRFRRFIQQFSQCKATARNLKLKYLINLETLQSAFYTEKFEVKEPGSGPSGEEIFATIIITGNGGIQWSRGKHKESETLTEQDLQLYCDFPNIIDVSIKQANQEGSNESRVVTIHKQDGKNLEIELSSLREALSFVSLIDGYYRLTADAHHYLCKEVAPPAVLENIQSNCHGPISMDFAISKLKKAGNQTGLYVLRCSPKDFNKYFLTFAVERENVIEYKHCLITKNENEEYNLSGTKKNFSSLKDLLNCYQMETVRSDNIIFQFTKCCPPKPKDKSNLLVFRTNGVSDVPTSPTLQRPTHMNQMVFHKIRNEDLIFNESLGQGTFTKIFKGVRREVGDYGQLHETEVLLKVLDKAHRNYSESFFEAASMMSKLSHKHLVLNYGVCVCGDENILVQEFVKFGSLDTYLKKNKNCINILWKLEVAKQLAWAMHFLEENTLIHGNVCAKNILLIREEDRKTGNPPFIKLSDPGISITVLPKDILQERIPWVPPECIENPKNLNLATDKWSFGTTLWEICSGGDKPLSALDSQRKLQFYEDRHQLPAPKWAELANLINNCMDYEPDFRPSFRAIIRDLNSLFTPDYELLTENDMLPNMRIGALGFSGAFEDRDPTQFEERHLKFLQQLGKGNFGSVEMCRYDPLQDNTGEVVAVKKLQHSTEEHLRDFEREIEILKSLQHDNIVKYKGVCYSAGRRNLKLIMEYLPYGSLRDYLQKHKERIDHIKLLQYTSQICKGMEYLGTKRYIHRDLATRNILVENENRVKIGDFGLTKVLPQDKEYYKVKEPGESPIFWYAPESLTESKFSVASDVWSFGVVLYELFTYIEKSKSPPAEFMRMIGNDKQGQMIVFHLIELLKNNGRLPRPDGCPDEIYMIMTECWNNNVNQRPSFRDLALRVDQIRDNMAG

Row | SMILES | IC50 [1] [µM] | IC50 [2] [µM] | IC50 [3] [µM] | IC50 [4] [µM]
1 | N#CC1CN(C(=O)c2ccc(-n3cc(-c4ccnc5[nH]cnc45)cn3)nc2)C1 [Example 1089, 1-(6-(4-(3H-imidazo[4,5-b]pyridin-7-yl)-1H-pyrazol-1-yl)nicotinoyl)azetidine-3-carbonitrile] | > 0.5 | > 0.5 | > 1 | > 1
2 | O=C1Cc2c(-c3cnn(C(=O)NCC(F)(F)F)c3)ccnc2N1 [Example 1045, N-(2,2,2-trifluoroethyl)-4-(2,3-dihydro-2-oxo-1H-pyrrolo[2,3-b]pyridin-4-yl)-1H-pyrazole-1-carboxamide] | > 1 | > 1 | > 1 | > 1
3 | CS(=O)(=O)CCC(F)c1ccc(-n2cc(-c3ccnc4[nH]cnc34)cn2)nc1 (centres unmarked) [Example 1162, 7-(1-(5-(1-fluoro-3-(methylsulfonyl)propyl)pyridin-2-yl)-1H-pyrazol-4-yl)-3H-imidazo[4,5-b]pyridine] | > 0.5 | > 0.5 | > 0.5 | > 1
4 | O=C(Cc1ccc(-n2cc(-c3ccnc4[nH]cnc34)cn2)nc1)NCC(F)(F)F [Example 1092, 2-(6-(4-(3H-imidazo[4,5-b]pyridin-7-yl)-1H-pyrazol-1-yl)pyridin-3-yl)-N-(2,2,2-trifluoroethyl)acetamide] | > 1 | > 1 | > 1 | > 1
5 | O=C(CC(c1ccc(-n2cc(-c3ccnc4[nH]cnc34)cn2)nc1)C(F)(F)F)N1CCOCC1 (centres unmarked) [Example 1249, 3-(6-(4-(3H-imidazo[4,5-b]pyridin-7-yl)-1H-pyrazol-1-yl)pyridin-3-yl)-4,4,4-trifluoro-1-morpholinobutan-1-one] | > 0.5 | > 0.5 | > 0.5 | > 1
6 | O=C(NCC(F)(F)F)c1ccc(-c2ccnc3[nH]c(=O)[nH]c23)cc1 [Example 1001, N-(2,2,2-trifluoroethyl)-4-(2,3-dihydro-2-oxo-1H-imidazo[4,5-b]pyridin-7-yl)benzamide] | > 10 | > 10 | > 10 | > 10
7 | CC1(C)CN(C(=O)N2CCN(c3ccnc4[nH]c(=O)[nH]c34)CC2)C1 [Example 1023, 7-(4-(3,3-dimethylazetidine-1-carbonyl)piperazin-1-yl)-1,3-dihydro-2H-imidazo[4,5-b]pyridin-2-one] | > 10 | > 10 | > 10 | > 10
8 | COc1cc(-c2nc3c(-c4cnn(C5COCCC5C#N)c4)ccnc3[nH]2)ccc1Cl (centres unmarked) [Example 1097, 3-(4-(2-(4-chloro-3-methoxyphenyl)-3H-imidazo[4,5-b]pyridin-7-yl)-1H-pyrazol-1-yl)-tetrahydro-2H-pyran-4-carbonitrile] | > 0.5 | > 10 | > 10 | > 1
9 | CS(=O)(=O)N1CCC(C(O)c2ccc(-n3cc(-c4ccnc5[nH]cnc45)cn3)nc2)CC1 (centres unmarked) [Example 1164, (6-(4-(3H-imidazo[4,5-b]pyridin-7-yl)-1H-pyrazol-1-yl)pyridin-3-yl)(1-(methylsulfonyl)piperidin-4-yl)methanol] | > 1 | > 1 | > 1 | > 1
10 | OCc1ccc(-n2cc(-c3ccnc4[nH]cnc34)cn2)nc1 [Example 1083, (6-(4-(3H-imidazo[4,5-b]pyridin-7-yl)-1H-pyrazol-1-yl)pyridin-3-yl)methanol] | > 0.5 | > 0.5 | < 0.5 | > 1
11 | CS(=O)(=O)CCC(c1ccc(-n2cc(-c3ccnc4[nH]cnc34)cn2)nc1)C1COC1 (centres unmarked) [Example 1160, 7-(1-(5-(3-(methylsulfonyl)-1-(oxetan-3-yl)propyl)pyridin-2-yl)-1H-pyrazol-4-yl)-3H-imidazo[4,5-b]pyridine] | > 0.5 | > 0.1 | > 0.5 | > 1
